For this assay, the target named is T1, aryl hydrocarbon receptor (AHR) (Homo sapiens, UniProt P35869).
T1 sequence (P35869 11-848): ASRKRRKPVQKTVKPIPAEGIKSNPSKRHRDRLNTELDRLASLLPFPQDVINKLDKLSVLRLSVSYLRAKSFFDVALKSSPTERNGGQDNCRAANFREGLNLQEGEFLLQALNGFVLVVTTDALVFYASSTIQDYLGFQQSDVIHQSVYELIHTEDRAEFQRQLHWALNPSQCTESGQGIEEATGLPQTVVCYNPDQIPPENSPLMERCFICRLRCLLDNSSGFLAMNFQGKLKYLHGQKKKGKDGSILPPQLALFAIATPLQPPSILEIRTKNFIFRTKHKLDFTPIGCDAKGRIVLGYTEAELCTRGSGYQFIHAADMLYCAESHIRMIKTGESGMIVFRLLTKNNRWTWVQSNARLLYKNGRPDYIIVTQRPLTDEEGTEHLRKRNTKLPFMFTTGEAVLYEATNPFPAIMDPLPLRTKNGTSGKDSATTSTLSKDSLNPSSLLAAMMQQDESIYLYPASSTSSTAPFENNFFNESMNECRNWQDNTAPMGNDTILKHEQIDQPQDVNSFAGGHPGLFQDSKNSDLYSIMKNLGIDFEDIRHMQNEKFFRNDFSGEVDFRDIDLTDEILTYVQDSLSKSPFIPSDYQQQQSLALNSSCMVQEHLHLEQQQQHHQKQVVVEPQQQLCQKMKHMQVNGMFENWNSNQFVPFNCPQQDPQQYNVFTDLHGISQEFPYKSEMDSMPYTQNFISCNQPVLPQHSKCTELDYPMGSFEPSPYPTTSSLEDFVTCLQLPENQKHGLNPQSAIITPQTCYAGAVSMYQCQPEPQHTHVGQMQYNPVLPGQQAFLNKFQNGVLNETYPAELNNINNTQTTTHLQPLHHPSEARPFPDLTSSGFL
The assay can be described thus: Inhibition of AHR target gene CYP1B1 expression (RT-qPCR) in MOLM-14 cells, endogenous AHR; functional readout only. Type of assay: cell-based. A general note: Quantitative PCR measures a nucleic acid by following its amplification.

Broadly, the IC50 is the midpoint of a concentration-inhibition curve. Read a high IC50 as weaker potency in that assay. For IK-364, 5 nM corresponded to half-maximal inhibition (IC50).

The values are drawn from PMC12722994, “The aryl hydrocarbon receptor is associated with monocytic AML and innate immune resistance reversible with an AHR inhibitor” (Frontiers in Immunology, 2025).
